Values joined by “and” are separate entries in the source; they are usually repeats but may differ in a detail not shown here. Equal values may be shown once. Read-outs that look alike come from different tables or passages of the source.
Columns and labels:
[1] = tested on: Staphylococcus aureus MRSA ATCC 33591; assay: MIC broth microdilution, compounds and antibiotics alone and in combination; assay type: cell-based; conditions: for MIC: Staphylococcus aureus, read-out: Minimum Inhibitory Concentration (MIC); for MIC / Minimum Inhibitory Concentration (MIC): alone, or antibiotic with SDBS/DBSA at sub-MIC concentration
Description: (§1) Antibiotic and Antibiofilm Susceptibility Tests. Minimum inhibitory concentration (MIC) broth microdilution method was performed according to CLSI guidelines (CLSI M07-A10: Methods for Dilution Antimicrobial Susceptibility Tests for Bacteria that Grow
(§2) Aerobically; Approved Standard-Tenth Edition). Minimum bactericidal concentration (MBC) was performed according to CLSI guidelines (CLSI M26-A: Methods for Determining Bactericidal Activity of Antimicrobial Agents; Approved Guideline).
(§3) The antibiotic resistance breakpoints were defined according to the recommendations of the Clinical and Laboratory Standards Institute (CLSI M07-A10: Methods for Dilution Antimicrobial Susceptibility Tests for Bacteria That Grow Aerobically; Approved Standard-Tenth Edition).
Four antibiotics (penicillin G, methicillin, gentamycin, and vancomycin) were tested in combination with SDBS and DBSA, by using a checkerboard methodology against MRSA ATCC 33591 (methicillin-R, gentamicin-R; penicillin-R) and VRSA VRS7 BEI NR-46417 (methicillin-R, gentamicin-R; penicillin-R, vancomycin-R). The combinations were assessed by fractional inhibitory concentration indices (FICIs) and the fold reduction of the MIC (“potentiation factor”) was calculated. In clinical terms, a potentiator enhances the action of a drug. SDBS and […] potentiate methicillin, gentamicin, penicillin, and vancomycin activity against MRSA and VRSA making MRSA and VRSA sensitive to those antibiotics (Table 13).

[2] = tested on: S. aureus ATCC 12600 biofilm; assay: Biofilm inhibition (MBIC), Syto 9 imaging; assay type: cell-based, Staphylococcus aureus
Description: (§4) FIGS. 1A and 1B show biofilm inhibition by butyl phosphoramidate (BPA), sodium dodecylbenzenesulfonate (SDBS), and 4-Dodecylbenzenesulfonic acid (DBSA) against Staphylococcus aureus ATCC 12600 and E. coli ATCC 11775, which was determined by (A) measuring total intensity with Ex/Em (nm): 456/541 and (B) staining biofilm with Syto 9 green-fluorescent nucleic acid stain. Biofilm images appear white and gray and images without biofilm appear black. Images of untreated biofilm, sub-MBIC, and MBIC were taken using MiniMax 300 Imaging Cytometer (Molecular Devices).
(§5) Imaging. Biofilm inhibition imaging was determined by growing biofilm in a black-walled optically-clear bottom 96 well plate at a 45° angle to promote biofilm formation prior to imaging. Biofilm was stained with Syto 9 green fluorescent live and dead nucleic acid stain and measuring total intensity with excitation/emission (nm): 456/541. Images of biofilm were taken using MiniMax 300 Imaging Cytometer (Molecular Devices).

[3] = tested on: Staphylococcus aureus VRSA VRS7 NR-46417; assay: MIC broth microdilution, compounds and antibiotics alone and in combination; assay type: cell-based; conditions: for MIC: Staphylococcus aureus, read-out: Minimum Inhibitory Concentration (MIC)
Description: as §1, §2, §3
Four antibiotics (penicillin G, methicillin, gentamycin, and vancomycin) were tested in combination with SDBS and DBSA, by using a checkerboard methodology against MRSA ATCC 33591 (methicillin-R, gentamicin-R; penicillin-R) and VRSA VRS7 BEI NR-46417 (methicillin-R, gentamicin-R; penicillin-R, vancomycin-R). The combinations were assessed by fractional inhibitory concentration indices (FICIs) and the fold reduction of the MIC (“potentiation factor”) was calculated. In clinical terms, a potentiator enhances the action of a drug.

[4] = tested on: E. coli ATCC 11775 biofilm; assay: Biofilm inhibition (MBIC), Syto 9 imaging; assay type: cell-based
Description: as §4, §5

[5] = tested on: P. aeruginosa type 2 mucoid ATCC 33468; assay: MIC broth microdilution; assay type: cell-based, Pseudomonas aeruginosa
Description: as §1, §2

B. cepacia biofilm = assay: Biofilm inhibition (MBIC); assay type: cell-based, Burkholderia cepacia
Description: as §5

[6] = tested on: S. aureus ATCC 6358 biofilm; assay: Minimum biofilm eradicating concentration (MBEC) assay, ASTM E2799-12; assay type: cell-based, Staphylococcus aureus
Description: Data corresponds to 4.4-Log reduction.
Minimum biofilm eradicating concentration (MBEC) was performed according to the ASTM standard (ASTM E2799-12; Standard Test Method for Testing Disinfectant Efficacy against Pseudomonas aeruginosa Biofilm using the MBEC Assay). Assays were performed in quadruplicates on more than one occasion.

[7] = VRSA VRS7 NR-46417, alone, or antibiotic with SDBS/DBSA at sub-MIC concentration

Molecule: CCCCCCCCCCCCc1ccc(S(=O)(=O)O)cc1 [DBSA, 4-Dodecylbenzenesulfonic acid]
- MIC [1]: 19 µg/mL
- MBIC (inhibition of biofilm formation) [2]: 100 µg/mL
- MIC [3, 7]: > 20 µg/mL

Molecule: COc1cccc(OC)c1C(=O)N[C@@H]1C(=O)N2[C@@H]1SC(C)(C)[C@@H]2C(=O)O [Methicillin, methicillin]
- Resistant / sensitive by CLSI breakpoints [1]: (R)
- MIC [1]: > 22.7 µg/mL
- MIC [3, 7]: > 22.7 µg/mL
- Resistant / sensitive by CLSI breakpoints ([3]; VRSA VRS7 NR-46417): (R)

Molecule: CC1(C)S[C@@H]2[C@H](NC(=O)Cc3ccccc3)C(=O)N2[C@H]1C(=O)O [Penicillin, penicillin G]
- Resistant / sensitive by CLSI breakpoints [1]: (R)
- MIC [1]: > 22.7 µg/mL
- MIC [3, 7]: 11.3 µg/mL
- Resistant / sensitive by CLSI breakpoints ([3]; VRSA VRS7 NR-46417): (R)

Molecule: CCCCCCCCCCCCOS(=O)(=O)[O-].[Na+] [SDS, sodium dodecyl sulfate]
- MBIC (inhibition of biofilm formation) [2]: 140 µg/mL

Molecule: CN[C@H](CC(C)C)C(=O)N[C@H]1C(=O)N[C@@H](CC(N)=O)C(=O)N[C@H]2C(=O)N[C@H]3C(=O)N[C@H](C(=O)N[C@H](C(=O)O)c4cc(O)cc(O)c4-c4cc3ccc4O)[C@H](O)c3ccc(c(Cl)c3)Oc3cc2cc(c3O[C@@H]2O[C@H](CO)[C@@H](O)[C@H](O)[C@H]2O[C@H]2C[C@](C)(N)[C@H](O)[C@H](C)O2)Oc2ccc(cc2Cl)[C@H]1O [Vancomycin, vancomycin]
- MIC ([3]; VRSA): 22.7 µg/mL
- Resistant / sensitive by CLSI breakpoints ([3]; VRSA VRS7 NR-46417): (R)

Molecule: butyl phosphoramidate [BPA]
- MBIC (inhibition of biofilm formation) [4]: 50 µg/mL
- Minimum Inhibitory Concentration (MIC) [1]: 25 µg/mL and 12.5 µg/mL
- MBIC (inhibition of biofilm formation) [2]: 50 µg/mL
- Minimum Inhibitory Concentration (MIC) [5]: 25 µg/mL and 12.5 µg/mL
- MBIC (inhibition of biofilm formation) (B. cepacia biofilm): 50 µg/mL
- Minimum Inhibitory Concentration (MIC) [3, 7]: 25 µg/mL and 12.5 µg/mL
- Log reduction of viable cells ([6]; after 10 minutes of exposure): 4.4 Log
- removal of biofilm ([6]; after 10 minutes of exposure, colony counting CFU/ml): 99.99%
- MBEC (removal of existing biofilm) ([6]; demonstrated by Lonza): < 25 µg/mL

Molecule: gentamicin
- Resistant / sensitive by CLSI breakpoints [1]: (R)
- Minimum Inhibitory Concentration (MIC) [1]: >45.4 µg/mL
- Resistant / sensitive by CLSI breakpoints ([3]; VRSA VRS7 NR-46417): (R)
- Minimum Inhibitory Concentration (MIC) [3, 7]: 22.7 µg/mL

— US20260182577A1, “COMBINATIONS TREATMENTS” (Aequor Inc., priority 2020, published 2026)
